Measurements as given in publication PMC6413923 (Journal of medicinal chemistry, 2017).
Where two headings read alike, the source gives them in different places.

Experiments:
[1] = target: MT1-MMP (Homo sapiens, UniProt P50281); details: cited from earlier work
[2] = tested on: collagenolytic MMPs; details: in words, cited from earlier work
[3] = target: MMP-2 (Homo sapiens, UniProt P08253); details: cited from earlier work; for Ki: read-out: Ki(app) MMP-2
[4] = target: MMP-9 (Homo sapiens, UniProt P14780); details: cited from earlier work; for Ki: read-out: Ki(app) MMP-9
Chain of MMP-9 (P14780 107-444 limits assumed): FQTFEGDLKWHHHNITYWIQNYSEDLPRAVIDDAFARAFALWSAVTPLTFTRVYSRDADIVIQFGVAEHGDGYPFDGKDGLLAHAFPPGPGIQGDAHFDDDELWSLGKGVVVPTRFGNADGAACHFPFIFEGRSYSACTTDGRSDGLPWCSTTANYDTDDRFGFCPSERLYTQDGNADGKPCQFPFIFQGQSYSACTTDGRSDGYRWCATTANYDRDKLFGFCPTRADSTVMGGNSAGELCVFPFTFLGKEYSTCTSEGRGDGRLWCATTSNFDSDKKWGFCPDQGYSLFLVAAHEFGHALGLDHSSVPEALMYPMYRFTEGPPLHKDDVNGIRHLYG

[5] = first generation THPI; cited from earlier work
[6] = CD thermal transition; assay type: physicochemical; details: 25 °C, from thermal transition at 225 nm
[7] = tested on: wild-type mice subjected to CLP; details: cited from earlier work
[8] = tested on: lung myeloperoxidase (MPO); details: cited from earlier work
[9] = tested on: cytokines and chemokines; details: cited from earlier work
[10] = target: T1, MMP-1 (Homo sapiens, UniProt P03956); details: in words; cited from earlier work
T1 sequence (P03956 100-469): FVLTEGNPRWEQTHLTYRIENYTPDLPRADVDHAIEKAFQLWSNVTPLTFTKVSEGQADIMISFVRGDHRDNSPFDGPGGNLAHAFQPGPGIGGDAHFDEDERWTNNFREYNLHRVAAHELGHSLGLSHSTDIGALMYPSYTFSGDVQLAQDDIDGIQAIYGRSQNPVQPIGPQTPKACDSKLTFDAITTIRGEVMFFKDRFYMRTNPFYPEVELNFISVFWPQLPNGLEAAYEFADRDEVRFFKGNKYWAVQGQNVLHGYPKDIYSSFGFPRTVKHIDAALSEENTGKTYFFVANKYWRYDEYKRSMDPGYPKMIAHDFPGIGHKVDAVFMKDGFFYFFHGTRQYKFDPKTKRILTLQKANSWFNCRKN

Chain of MMP-2 (P08253 110-465 limits assumed): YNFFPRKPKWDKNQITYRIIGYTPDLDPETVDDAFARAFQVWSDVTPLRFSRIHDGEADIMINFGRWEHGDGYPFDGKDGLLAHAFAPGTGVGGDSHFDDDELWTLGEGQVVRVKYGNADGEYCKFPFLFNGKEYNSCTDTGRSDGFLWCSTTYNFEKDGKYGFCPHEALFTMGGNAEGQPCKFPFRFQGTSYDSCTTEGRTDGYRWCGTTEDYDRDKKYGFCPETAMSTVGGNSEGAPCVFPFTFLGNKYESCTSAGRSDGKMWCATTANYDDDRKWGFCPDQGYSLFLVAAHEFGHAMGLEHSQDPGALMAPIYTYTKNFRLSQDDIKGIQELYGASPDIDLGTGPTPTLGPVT

## C6-(Gly-Pro-Hyp)4-Gly-Pro-Pro-GlyΨ{PO2H-CH2}Val-Val-Gly-Glu-Gln-Gly-Glu-Gln-Gly-Pro-Pro-(Gly-Pro-Hyp)4-NH2 [C6-α1(V)GlyΨ{PO2H-CH2}Val THPI]
[1]
  inhibition of MT1-MMP: did not inhibit MT1-MMP
[2]
  inhibition of MMPs: low nanomolar range
[3]; 10 °C
  Ki: 4.14 ± 0.47 nM
[3]; 37 °C
  Ki: 19.2 ± 0.64 nM
[4]; comparison in words
  inhibition of full-length (82 kDa) MMP-9 versus TIMP-1 resistant (65 kDa) MMP-9: similar
[4]; 10 °C
  Ki: 1.76 ± 0.05 nM
[4]; 37 °C
  Ki: 1.29 nM
[5]
  Tm: 25 °C

## (Gly-Pro-Hyp)5-Gly-Arg-Ile-Gly-Phe~Leu-Asp-Pro-Gln-Gly-Val-Arg-(Gly-Pro-Hyp)5-Tyr-NH2 [FLDP]
[6]
  % folded: 72%

## COc1ccc(S(=O)(=O)N2Cc3ccccc3C[C@@H]2C(=O)NO)cc1 [(3R)-(+) - [2-(4-methoxy-benzenesulfonyl)-1,2,3,4-tetrahydroisoquinoline-3-hydroxamate]]
[7]
  survival of CLP mice: improved survival
[8]
  whole lung MPO activity in CLP mice: reduced whole lung MPO activity
[9]
  IL-1β in CLP mice: significantly reduced
  IL-6 in CLP mice: significantly reduced
  MIP-1α in CLP mice: significantly reduced
  TNF-α in CLP mice: significantly reduced

## (Gly-Pro-Hyp)5-Gly-Arg-Ile-Gly-Phe~Leu-Arg-Thr-Gln-Gly-Val-Arg-(Gly-Pro-Hyp)5-Tyr-NH2 [FLRT]
[6]
  % folded: 79%

## (Gly-Pro-Hyp)6-Gly-Pro-Gln-Gly~Ile-His-Lys-Gln-Arg-Gly-Val-Arg-(Gly-Pro-Hyp)5-NH2 [IHK]
[6]
  % folded: 83%

## (Gly-Pro-Hyp)5-Gly-Arg-Ile-Gly-His~Leu-Arg-Thr-Gln-Gly-Val-Arg-(Gly-Pro-Hyp)5-Tyr-NH2 [HLRT]
[6]
  % folded: 72%

## (Gly-Pro-Hyp)6-Gly-Pro-Gln-Gly~Val-Gln-His-Gln-Arg-Gly-Val-Arg-(Gly-Pro-Hyp)5-NH2 [VQH]
[6]
  % folded: 87%

## (Gly-Pro-Hyp)4-Gly-mep-Flp-Gly-Pro-Gln-GlyΨ{PO2H-CH2}Leu-Ala-Gly-Gln-Arg-Gly-Ile-Arg-Gly-mep-Flp-(Gly-Pro-Hyp)4-Tyr-NH2 [α1(I-III)GlyΨ{PO2H-CH2}Leu THPI]
[1]; read-out: Ki MT1-MMP
  Ki: 120 nM
[2]; first generation
  selectivity toward collagenolytic MMPs: selective toward collagenolytic MMPs
[2]
  inhibition of MMPs: low nanomolar range
[10]
  inhibition of MMP-1: effectively inhibits
[3]; in words
  inhibition of MMP-2: effectively inhibits
[4]; in words
  inhibition of MMP-9: effectively inhibits

## (Gly-Pro-Hyp)6-Gly-Pro-Gln-Gly~Ile-Tyr-Phe-Gln-Arg-Gly-Val-Arg-(Gly-Pro-Hyp)5-NH2 [IYF]
[6]
  % folded: 88%

## (Gly-Pro-Hyp)6-Gly-Pro-Gln-Gly~Val-Ser-Trp-Gln-Arg-Gly-Val-Arg-(Gly-Pro-Hyp)5-NH2 [VSW]
[6]
  % folded: 92%
